{"source": "patent US4329473A", "about": "“Oxoalkanoic acid derivatives as inhibitors of angiotensin converting enzyme” (priority 1980, dated 1982)", "note": "Where a SMILES comes first, the peptide text is derived from it.", "data": [{"target": "T1, porcine plasma angiotensin-converting enzyme (Sus scrofa, UniProt F1RRW5)", "T1 construct": "procine plasma angiotensin-converting enzyme; from tissue; host or cells: porcine plasma", "T1 sequence (F1RRW5 34-1309)": "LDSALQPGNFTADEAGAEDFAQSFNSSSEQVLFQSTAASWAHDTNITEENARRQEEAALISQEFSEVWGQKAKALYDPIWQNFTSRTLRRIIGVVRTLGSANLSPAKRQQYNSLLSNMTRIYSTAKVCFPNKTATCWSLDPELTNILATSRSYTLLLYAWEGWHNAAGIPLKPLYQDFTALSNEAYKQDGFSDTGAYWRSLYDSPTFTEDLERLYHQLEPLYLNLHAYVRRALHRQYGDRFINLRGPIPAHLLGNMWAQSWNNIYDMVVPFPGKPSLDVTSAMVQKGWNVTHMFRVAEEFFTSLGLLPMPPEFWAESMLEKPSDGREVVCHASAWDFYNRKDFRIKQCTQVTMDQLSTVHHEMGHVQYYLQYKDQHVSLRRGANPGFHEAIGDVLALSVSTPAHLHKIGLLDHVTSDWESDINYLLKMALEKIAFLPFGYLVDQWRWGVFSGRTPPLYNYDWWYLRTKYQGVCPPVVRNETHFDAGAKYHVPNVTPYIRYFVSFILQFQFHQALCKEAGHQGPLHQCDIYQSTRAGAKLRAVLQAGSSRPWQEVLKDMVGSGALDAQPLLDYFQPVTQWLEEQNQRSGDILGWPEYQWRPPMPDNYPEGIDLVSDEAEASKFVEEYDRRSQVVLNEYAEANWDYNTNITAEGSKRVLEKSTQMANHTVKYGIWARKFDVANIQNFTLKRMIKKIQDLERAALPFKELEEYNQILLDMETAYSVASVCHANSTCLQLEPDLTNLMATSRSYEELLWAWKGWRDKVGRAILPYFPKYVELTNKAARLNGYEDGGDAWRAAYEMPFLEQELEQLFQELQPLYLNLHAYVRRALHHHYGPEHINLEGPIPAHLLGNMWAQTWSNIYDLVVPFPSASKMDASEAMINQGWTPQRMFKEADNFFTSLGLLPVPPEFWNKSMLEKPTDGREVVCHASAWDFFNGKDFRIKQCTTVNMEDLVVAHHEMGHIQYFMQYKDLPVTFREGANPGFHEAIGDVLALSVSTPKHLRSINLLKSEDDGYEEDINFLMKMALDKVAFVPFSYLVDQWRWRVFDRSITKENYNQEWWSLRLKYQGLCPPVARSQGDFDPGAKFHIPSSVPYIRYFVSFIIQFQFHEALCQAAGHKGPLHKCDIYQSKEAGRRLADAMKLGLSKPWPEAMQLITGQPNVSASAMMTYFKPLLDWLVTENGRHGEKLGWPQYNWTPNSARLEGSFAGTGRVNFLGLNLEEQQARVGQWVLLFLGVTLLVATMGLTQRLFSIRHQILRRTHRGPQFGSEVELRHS", "assay": "Angiotensin Converting Enzyme Inhibition Assay", "type": "biochemical", "details": "compared with Captopril / other examples, Table II", "procedure": "(§1) Said assay is described in the literature as follows: B. S. Tsai, M. J. Peach, M. C.\n(§2) The Angiotensin Converting Enzyme Inhibition Assay represents a test procedure in which various compounds are tested for their ability to inhibit the conversion of the decapeptide angiotensin I or the tripeptide hippuryl-histidyl-leucine to its cleavage product, the dipeptide histidyl-leucine. This dipeptide is detected via its fluorescent condensation product with o-phthaladehyde.\n(§3) For testing the effect of inhibitors on procine plasma angiotensin-converting enzyme, two assays were run in parallel. One contained the substrate (1-2 mM), enzyme (1 mg) and various concentrations (1 nM-10 mM) of an inhibitor, the other contained only the substrate and enzyme. The assays were conducted in sodium phosphate buffer, pH 7.6, under the conditions described in the article by Tsai, et al., supra.", "values": [{"smiles": "CC(CC(=O)C(Cc1ccccc1)NC(=O)c1ccccc1)C(=O)N1CCC[C@H]1C(=O)O", "note": "(stereo partly drawn) [Example XIII, 5-Benzamido-4-oxo-2-methyl-6-phenylhexanoyl-L-proline]", "effectiveness in angiotensin converting enzyme inhibition assay (in words)": "most effective compound"}]}, {"target": "T1, porcine plasma angiotensin-converting enzyme", "assay": "Angiotensin Converting Enzyme Inhibition Assay", "type": "biochemical", "details": "sodium phosphate buffer, pH 7.6; substrate 1-2 mM; inhibitor 1 nM-10 mM", "procedure": "as §1, §2, §3", "units": {"IC50": "nM"}, "values": [{"smiles": "O=C(NC(Cc1ccccc1)C(=O)CCC(=O)N1CCC[C@H]1C(=O)O)OCc1ccccc1", "note": "(stereo partly drawn) [Example III, 5-Benzyloxycarbonylamino-4-oxo-6-phenylhexanoyl-L-proline]", "IC50": 240}, {"smiles": "O=C(NC(Cc1ccc(OCc2ccccc2)cc1)C(=O)CCC(=O)N1CCC[C@H]1C(=O)O)c1ccccc1", "note": "(stereo partly drawn) [Example IX, 5-Benzamido-4-oxo-6-p-benzyloxyphenylhexanoyl-L-proline]", "IC50": 10}, {"smiles": "O=C(NC(Cc1ccccc1)C(=O)CCC(=O)N1CCC[C@H]1C(=O)O)c1ccco1", "note": "(stereo partly drawn) [Example V, 5-(2-Furoylamino)-4-oxo-6-phenylhexanoyl-L-proline]", "IC50": 1.4}, {"smiles": "O=C(NC(Cc1ccc(O)cc1)C(=O)CCC(=O)N1CCC[C@H]1C(=O)O)c1ccccc1", "note": "(stereo partly drawn) [Example X, 5-Benzamido-4-oxo-6-p-hydroxyphenylhexanoyl-L-proline]", "IC50": 4.7}, {"smiles": "O=C(NC(Cc1cccnc1)C(=O)CCC(=O)N1CCC[C@H]1C(=O)O)c1ccccc1", "note": "(stereo partly drawn) [Example XI, 5-Benzamido-4-oxo-6-(3-pyridyl)hexanoyl-L-proline]", "IC50": 5.7}, {"smiles": "CCCCCC(=O)NC(Cc1ccccc1)C(=O)CCC(=O)N1CCC[C@H]1C(=O)O", "note": "(stereo partly drawn) [Example XIX, 5-n-Hexanoylamino-4-oxo-6-phenylhexanoyl-L-proline]", "IC50": 47}, {"smiles": "CCCCOC(=O)NC(Cc1ccccc1)C(=O)CCC(=O)N1CCC[C@H]1C(=O)O", "note": "(stereo partly drawn) [Example XV, 5-n-Butyloxycarbonylamino-4-oxo-6-phenylhexanoyl-L-proline]", "IC50": 210}, {"smiles": "CCCCOC(=O)NC(Cc1ccccc1)C(=O)CC(C)C(=O)N1CCC[C@H]1C(=O)O", "note": "(stereo partly drawn) [Example XVII, 5-n-Butyloxycarbonylamino-4-oxo-2-methyl-6-phenylhexanoyl-L-proline]", "IC50": 33}, {"smiles": "O=C(NC(Cc1ccccc1)C(=O)CCC(=O)N1CCC[C@H]1C(=O)O)c1ccncc1", "note": "(stereo partly drawn) [IV, 5-(4-Pyridyl)carbonylamino-4-oxo-6-phenylhexanoyl-L-proline]", "IC50": 20}, {"smiles": "O=C(CCC(=O)N1CCC[C@H]1C(=O)O)C(Cc1ccccc1)NC(=O)C1CCCO1", "note": "(stereo partly drawn) [VI, 5-(2-Tetrahydrofuroylamino)-4-oxo-6-phenylhexanoyl-L-proline]", "IC50": 20}, {"smiles": "Cc1ccccc1C(=O)NC(Cc1ccccc1)C(=O)CCC(=O)N1CCC[C@H]1C(=O)O", "note": "(stereo partly drawn) [VII, 5-O-Toluoylamino-4-oxo-6-phenylhexanoyl-L-proline]", "IC50": 46}, {"smiles": "COc1ccc(CC(NC(=O)c2ccccc2)C(=O)CCC(=O)N2CCC[C@H]2C(=O)O)cc1OC", "note": "(stereo partly drawn) [VIII, 5-Benzamido-4-oxo-6-(3,4-dimethoxyphenyl)hexanoyl-L-proline]", "IC50": 1.4}, {"smiles": "CC(C)C(CC(=O)C(Cc1ccccc1)NC(=O)c1ccccc1)C(=O)N1CCC[C@H]1C(=O)O", "note": "(stereo partly drawn) [XIV, 5-Benzamido-4-oxo-2-isopropyl-6-phenylhexanoyl-L-proline]", "IC50": 230}, {"smiles": "CC(=O)NC(Cc1ccccc1)C(=O)CCC(=O)N1CCC[C@H]1C(=O)O", "note": "(stereo partly drawn) [XVIII, 5-Acetylamino-4-oxo-6-phenylhexanoyl-L-proline]", "IC50": 330}, {"smiles": "CCCCCCCC(=O)NC(Cc1ccccc1)C(=O)CCC(=O)N1CCC[C@H]1C(=O)O", "note": "(stereo partly drawn) [XX, 5-n-Octanoylamino-4-oxo-6-phenylhexanoyl-L-proline]", "IC50": 650}, {"smiles": "CCCCCCCCCC(=O)NC(Cc1ccccc1)C(=O)CCC(=O)N1CCC[C@H]1C(=O)O", "note": "(stereo partly drawn) [XXI, 5-n-Decanoylamino-4-oxo-6-phenylhexanoyl-L-proline]", "IC50": 6500}]}, {"system": "angiotensin converting enzyme", "assay": "not given", "details": "literature; cited from earlier work", "values": [{"smiles": "C[C@H](NC(=O)[C@@H](N)Cc1ccccc1)C(=O)N1CCC[C@H]1C(=O)O", "note": "[phenylalanyl-alanyl-proline] (H-Phe-Ala-Pro-OH)", "inhibition of the converting enzyme (in words)": "substantial degree of activity"}]}]}
